This is an account of results in patent US10472330B2, “Substituted triazenes protected from degradation by carboxylation of N1” (ARIZONA BOARD OF REGENTS ON BEHALF OF THE UNIVERSITY OF …, priority 2015, dated 2019).

Series [1] has as its target Bovine serum albumin (BSA) (Bos taurus, UniProt P02769). Kind of series: BSA labeling (gel fluorescence) after acidification. It is filed as biochemical. The settings on record: 10 μM BSA, 10 μM compound after acidification at pH 2 for 0-60 min, then pH 8.8, 0° C., 1 hour. On the procedure:
To 10 μM solution of BSA in 100 mM Tris-Cl pH 8.8 was added 10 μM of Compound 53 after acidification (100 mM Tris-Cl pH 2) for 0, 1, 10, 30, or 60 minutes. […] The reaction was then allowed to proceed at 0° C. for 1 hour prior to loading onto a gel.
Bovine serum albumin (BSA) was used as a model protein to help assess the ability of Compound 53 to label proteins. BSA is known to bind to small molecules. Compound 53 was subjected to acid for varying times and then added to a solution of BSA at a pH sufficient to minimize background release of the diazonium ion (FIG. 11C). […] It is possible that this indicates a cleavage of the azobenzene linkage; however, the fluorescence could be quenched by reduction at several locations. To assess whether the standard azobenzene reduction is operative with these compounds, the resulting amino phenol may be oxidized and the ortho-iminoquinone may be trapped via established Diels-Alder chemistry. In some embodiments, molecules of the present invention can help distinguish between tyrosine and histidine modifications.

Series [2] in a line: Stability in DMSO with excess acetic acid, with or without light. It is filed as physicochemical. On the procedure:
(§1) It is possible that Compound A may be useful as a photo-catalytic base in the context of organic reactions. […] As noted previously, Compound A is quite stable to an excess of acetic acid in DMSO, showing only 12% degradation over 14 hours at room temperature. […] To confirm that this was due to the acid, a solution of Compound A (in pure DMSO) was irradiated. After four hours of constant irradiation in acid-free DMSO, an E:Z ratio of nearly 50:50 was observed.

Series [3] can be described thus: Stability of non-irradiated (dark) aqueous solutions. In kind it is physicochemical. From the text: (§2) Referring to FIG. 5A, in some embodiments, triazabutadiene molecules of the present invention may readily photoisomerize to a more reactive Z-form. As an example, an aqueous solution of Compound A was irradiated with a simple hand-held UV lamp (“365 nm,” measured at 350 nm). Consumption of Compound A was observed after only a few hours. […] Without wishing to limit the present invention to any theory or mechanism, it was hypothesized that if a two-electron process were happening, then Compound A-Z would be more basic than Compound A-E. A 1.0 N NaOH solution of Compound A was treated with light. […] Benzene diazonium ions also absorb UV light to expel nitrogen and generate a benzene radical. In order to resolve if the initial cleavage undergoes a radical homolytic mechanism versus a two-electron heterolytic mechanism, a trapping experiment using resorcinol was conducted. (Resorcinol was chosen because it can serve a dual role as a radical scavenger and a trap benzene diazonium species that could be formed.) An excess of resorcinol was added to a pH 9 borate-buffered solution of Compound A and the mixture was irradiated with light. The known azobenzene, Sudan Orange G, was formed in a 65% yield (versus 4% for the non-irradiated reaction). Derivatives of Compound A were made to examine the effects of electronic perturbations on the light-induced degradation. […]

The nature of series [4]: Solubility observations. It is filed as physicochemical. The settings on record: organic solvents. On the procedure: as §1
As another non-limiting example, an azide (e.g., NHS-azide) to N-heterocyclic carbene (NHC) route may be used to synthesize triazabutadiene molecules (e.g., see FIG. 6C). For example, as shown in Compound 4 of FIG. 6D, a triazabutadiene molecule was synthesized from dimethyl imidazole derived NHC and phenyl azide. […] This change was confirmed to coincide with diazonium formation by trapping the reactive species with resorcinol to provide known diazo dye Sudan Orange G. When the triazabutadiene molecule (Compound 4) was treated with the much less acidic acetic acid, the same product was obtained.
To render the triazabutadiene water-soluble, methyl imidazole was alkylated with propane sultone to provide the Zwitterionic NHC precursor Compound 5a (see FIG. 6E). […] Compound 6a was highly colored, so its pH dependence was studied using UV/vis. The reactions were not only pH-, but also scan-frequency dependent. Upon finding this, the stability of Compound 6a was studied in D2O in the dark using NMR. Even in the dark it was unstable, but not in the diazonium-forming way. Both Compound 6b and a more hindered mesityl (Mes) substituted Compound 6c (see FIG. 6E) were synthesized to stabilize what was initially considered to be a rearrangement pathway that could be blocked by steric repulsion. […] Dissolution in 0.1 N NaOH rendered all compounds stable (e.g., no detectable degradation after 24 hours in the dark).
To further examine the reactivity of this class of compounds, variants Compound 6d and Compound 6e were synthesized (see FIG. 6G). It was hypothesized that the p-methoxy and p-nitro analogs (Compound 6d and Compound 6e, respectively) would display different reactivity profiles. […] After collecting the precipitate and dissolving it in deuterated methanol, no change was observed from a sample of Compound 6e that had never been exposed to a buffered solution. […] It is possible that: 1) that the sodium salt of Compound 6e is much less soluble than the potassium salt; or 2) with different solvating ions present the sulfonate interacts with the electron-poor N2 nitrogen atom of the triazabutadiene to break conjugation and form an insoluble complex (this is backed by a reversible color change of the starting rust-red solid, to the light yellow precipitate). […]

Series [5] is described as follows: Photo-induced degradation of triazabutadienes under hand-held UV lamp, followed by NMR. In kind it is physicochemical. On the procedure: (i) The reaction was monitored by comparing starting materials (A, C, D, and E) with product (B); (ii) Peak absorption and extinction coefficients for all of the compounds were excitable by the UV source used; (iii) Time-dependent conversion of compounds was measured by NMR integration.
Referring to FIG. 5A, in some embodiments, triazabutadiene molecules of the present invention may readily photoisomerize to a more reactive Z-form. As an example, an aqueous solution of Compound A was irradiated with a simple hand-held UV lamp (“365 nm,” measured at 350 nm). Consumption of Compound A was observed after only a few hours. […] Without wishing to limit the present invention to any theory or mechanism, it was hypothesized that if a two-electron process were happening, then Compound A-Z would be more basic than Compound A-E. A 1.0 N NaOH solution of Compound A was treated with light. […] Benzene diazonium ions also absorb UV light to expel nitrogen and generate a benzene radical. In order to resolve if the initial cleavage undergoes a radical homolytic mechanism versus a two-electron heterolytic mechanism, a trapping experiment using resorcinol was conducted. (Resorcinol was chosen because it can serve a dual role as a radical scavenger and a trap benzene diazonium species that could be formed.) An excess of resorcinol was added to a pH 9 borate-buffered solution of Compound A and the mixture was irradiated with light. The known azobenzene, Sudan Orange G, was formed in a 65% yield (versus 4% for the non-irradiated reaction). Derivatives of Compound A were made to examine the effects of electronic perturbations on the light-induced degradation. […] A buffered borate solution was chosen due to its alkaline nature and lack of complicating signals in the NMR experiment. Compounds C-E all have absorption spectra that are well within the range of the UV lamp (see FIG. 5A(ii)).

A short description of series [6]: E/Z photoisomerization and thermal Z to E reversion. The note with it: MeOD. In kind it is physicochemical.
Series [7] can be described thus: Resorcinol trapping of diazonium species (Sudan Orange G formation). It is filed as physicochemical. The note with it: excess resorcinol, pH 9 borate buffer.
Excerpt: as §2

A short description of series [8]: In situ real-time pH measurement upon UV irradiation. It is filed as physicochemical. The settings on record: water, pH adjusted to 9 before irradiation, over several minutes. On the procedure:
In an effort to examine the rate order for the pH-increasing reaction more carefully, in situ, real-time pH measurements were acquired. Compound A was dissolved in water and the pH of the solution was adjusted to 9 such that it would not form Compound B in the absence of light. […] This spike was not at all consistent with the model of the pH increase being solely linked to the concentration of Compound B being generated.
A sample was irradiated and then the light was turned off once the pH of the solution started to increase noticeably. […] The experiment was repeated with increasing times of irradiation, and a saw-tooth pattern was obtained. The process was not completely reversible due to some degradation to Compound B. Indeed, triazabutadiene Compound A can serve a dual role of being a photo-masked base (see FIG. 4B(i)), and a base whose intrinsic functional group properties are altered photochemically (FIG. 4B(iii)).
Referring to FIG. 5A(iii), Compound C and Compound D were examined in an effort to find a base that was reversibly basic but also more resistant to degradation.

The conditions of series [9]: not pH dependent in the physiological range; cited from earlier work.

Bovine serum albumin (BSA), sequence (P02769 25-607): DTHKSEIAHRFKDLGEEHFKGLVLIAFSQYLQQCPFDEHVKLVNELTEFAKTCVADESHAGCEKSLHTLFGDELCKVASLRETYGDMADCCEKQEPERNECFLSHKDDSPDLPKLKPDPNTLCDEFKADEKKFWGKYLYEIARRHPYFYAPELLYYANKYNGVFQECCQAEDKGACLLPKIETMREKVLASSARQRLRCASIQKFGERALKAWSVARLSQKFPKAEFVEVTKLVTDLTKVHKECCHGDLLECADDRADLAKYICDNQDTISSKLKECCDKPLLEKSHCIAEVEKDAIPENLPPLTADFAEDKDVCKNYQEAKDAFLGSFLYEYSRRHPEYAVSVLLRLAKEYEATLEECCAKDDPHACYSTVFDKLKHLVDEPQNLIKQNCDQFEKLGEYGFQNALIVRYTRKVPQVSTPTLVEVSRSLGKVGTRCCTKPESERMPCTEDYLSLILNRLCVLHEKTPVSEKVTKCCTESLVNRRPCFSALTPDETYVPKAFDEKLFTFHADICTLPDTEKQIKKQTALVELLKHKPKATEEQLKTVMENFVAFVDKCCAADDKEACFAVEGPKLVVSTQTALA

For the molecule `Cc1cc(C)c(-n2ccn(CCCS(=O)(=O)O)c2=NN=Nc2ccc3c(C(F)(F)F)cc(=O)oc3c2)c(C)c1` [Compound 53], in series [1], the “Labeling of BSA” value is reported as “labeled in a pH dependent manner”.

For `Cc1cc(C)c(-n2ccn(CCCS(=O)(=O)[O-])c2=NN=Nc2ccccc2)c(C)c1.[K+]` [Compound A], in [2] (14 hours, room temperature, no light), the “Degradation with excess acetic acid in DMSO” value came to 12%. Moreover, the “Degradation with acetic acid in DMSO upon irradiation” value in series [2] (irradiation with light, same time frame (14 hours)) is “completely fell apart”. Besides, the “Stability at pH 14 in the dark” value in series [3] (1.0 N NaOH solution, pH 14, dark) is listed as “stable for weeks”. Besides, in series [3] (aqueous solution, similar conditions, no irradiation), the “Stability of non-irradiated reaction” value is “stable for days”. In addition, the “Solubility in organic solvents” value in series [4] is on record as “limited solubility in all but DMSO”. For the same molecule, the “Consumption of starting material under constant irradiation at pH 14” value in [5] (1.0 N NaOH, pH 14, 20 hours constant irradiation) is on record as “near complete consumption”. In [5] (aqueous solution, hand-held UV lamp (365 nm, measured at 350 nm)), the “Consumption on UV irradiation (time)” value was “a few hours”. For the same molecule, in series [6], the “Rate of first-order thermal isomerization” value was 3e-05 s⁻¹. Also, the “Sudan Orange G yield, irradiated” value in series [7] (irradiated with light) came out at 65%. Besides, the “Sudan Orange G yield, non-irradiated” value in series [7] (non-irradiated reaction) was 4%. Besides, the “pH of solution upon exposure to 350 nm light” value in series [8] is reported as around 10.

Turning to `N#[N+]c1ccccc1` [benzenediazonium], in series [9], the “Half-life of first-order degradation to phenol” value is around 4 h.
